Reference: article PMC10383573, “New Imadazopyrazines with CDK9 Inhibitory Activity as Anticancer and Antiviral: Synthesis, In Silico, and In Vitro Evaluation Approaches” (Pharmaceuticals, 2023)
Read-outs that look alike come from different tables or passages of the source.

Tests used:
CDK9 [1] = target: T1, CDK9 (Homo sapiens, UniProt P50750); parameters: purchased BPS Biosciences (San Diego, CA); conditions: compound 2 of Figure 1; ref [40]; cited from earlier work
three cancer cell lines = conditions: average of three cancer cell lines, ref [40], cited from earlier work
CDK5 = conditions: new-generation CDK9 inhibitors; ref [21]; cited from earlier work
CDK7 = conditions: new-generation CDK9 inhibitors; ref [21]; cited from earlier work
CDK2 = conditions: new-generation CDK9 inhibitors; ref [21] (Atuveciclib), [32] (BAY-1251152); cited from earlier work
[2] = test system: six breast cancer cell lines; conditions: read-out: Cytotoxicity IC50; average of six breast cancer cell lines; ref [38],[39]; cited from earlier work
[3] = test system: human Coronavirus (HCoV-229E); assay: 229E inhibitory assay (cytopathic inhibition effect); type: cell-based, human Coronavirus 229E; conditions: for IC50: read-out: IC50 229E inhibitory effect
Protocol: The antiviral effect of the compounds was examined in a human Coronavirus (HCoV-229E) inhibitory assay. The standard ribavirin (a well-established antiviral agent) was used as a positive control in this experiment.
The cytopathic inhibition effect was used to assess the antiviral and cytotoxicity of the compounds using a method described by Choi et al. (2009). Coronavirus 229E cells were used in this assay. The antiviral activity of the tested compounds was measured as a percentage using a method described by Pauwels et al.’s (1988) research. GraphPad Prism 5.0 software was used to analyze the results. Ribavirin was used as a positive standard in this assay, and DMSO was used as a negative standard.

K652 cancer cells = assay: MTT cytotoxicity assay, K652; type: cell-based; conditions: K652, 48 h, read-out: IC50 K652
Protocol: (§1) The cytotoxicity effect of the new compounds was assessed in an MTT assay against chronic myelogenous leukemia (K652), colorectal (HCT116), and breast (MCF7) cancer cell lines. […] The data is presented in Table 4 as IC50 values (in µM).
(§2) Cells were obtained from American Type Culture Collection. The cell culture DMEM was obtained from Life Technologies and Invitrogen and supplied with 10% FBS from Hyclone, 1% penicillin-streptomycin, and 10 µg/mL insulin from Sigma-Aldrich.
(§3) The MTT assay was used to monitor the in vitro cytotoxicity of our compounds. […] Then, the cells were incubated with 10% v/v reconstituted MTT at 37 °C for 3 h.

HCT116 cancer cells = assay: MTT cytotoxicity assay, HCT116; type: cell-based; conditions: Homo sapiens, HCT-116, 48 h, means (SD) of three trials
Protocol: as §1, §2, §3

CDK9 [4] = target: T1, CDK9; assay: In vitro CDK9 kinase assay (BPS Biosciences kit)
Protocol: The in vitro kinase activity was measured using a CDK9 assay kit obtained from BPS Biosciences (San Diego, CA). The inhibitory effect of the tested compounds was assessed following the manufacturer’s instructions as indicated in the kit. GraphPad Prism 5.0 software was used to analyze the results.

FHC normal cells = assay: MTT assay against FHC normal cells; type: cell-based; conditions: for SI (Selectivity Index) HCT116: FHC versus HCT116; for SI (Selectivity Index) K652: FHC versus K652; for SI (Selectivity Index) MCF7: FHC versus MCF7; for IC50: read-out: FHC IC50
Protocol: as §3

[5] = test system: MCF7, HCT116, and K652 cancer cells; assay: MTT cytotoxicity assay, average of the three cell lines; type: cell-based
Protocol: as §1, §2, §3

MCF7 cancer cells = assay: MTT cytotoxicity assay, MCF7; type: cell-based; conditions: Homo sapiens, 48 h, means (SD) of three trials
Protocol: as §1, §2
The MTT assay was used to monitor the in vitro cytotoxicity of our compounds. […] Then, the cells were incubated with 10% v/v reconstituted MTT at 37 °C for 3 h. The multiwell plates were then read using Wallac Victor2 1420 multilabel counter, and the absorbance was measured at a wavelength of 450 (ex) and 590 nm (em).

[6] = Cytotoxicity on target cells in the antiviral assay; conditions: target cells of the HCoV-229E antiviral assay
[7] = HCoV-229E, cytopathic effect inhibition
[8] = MTT assay, normal noncancerous cells

T1 sequence (P50750 whole entry): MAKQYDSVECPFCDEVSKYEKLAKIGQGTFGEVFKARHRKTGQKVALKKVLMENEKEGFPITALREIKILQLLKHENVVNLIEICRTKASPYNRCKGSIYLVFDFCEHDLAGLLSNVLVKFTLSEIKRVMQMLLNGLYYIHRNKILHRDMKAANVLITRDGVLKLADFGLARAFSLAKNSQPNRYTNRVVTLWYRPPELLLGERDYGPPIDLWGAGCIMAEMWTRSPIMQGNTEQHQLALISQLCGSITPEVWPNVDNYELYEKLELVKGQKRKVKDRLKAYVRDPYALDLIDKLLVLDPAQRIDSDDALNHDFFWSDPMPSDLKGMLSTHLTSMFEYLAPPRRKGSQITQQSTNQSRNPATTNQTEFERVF
T1 sequence (O60563 whole entry, further chain): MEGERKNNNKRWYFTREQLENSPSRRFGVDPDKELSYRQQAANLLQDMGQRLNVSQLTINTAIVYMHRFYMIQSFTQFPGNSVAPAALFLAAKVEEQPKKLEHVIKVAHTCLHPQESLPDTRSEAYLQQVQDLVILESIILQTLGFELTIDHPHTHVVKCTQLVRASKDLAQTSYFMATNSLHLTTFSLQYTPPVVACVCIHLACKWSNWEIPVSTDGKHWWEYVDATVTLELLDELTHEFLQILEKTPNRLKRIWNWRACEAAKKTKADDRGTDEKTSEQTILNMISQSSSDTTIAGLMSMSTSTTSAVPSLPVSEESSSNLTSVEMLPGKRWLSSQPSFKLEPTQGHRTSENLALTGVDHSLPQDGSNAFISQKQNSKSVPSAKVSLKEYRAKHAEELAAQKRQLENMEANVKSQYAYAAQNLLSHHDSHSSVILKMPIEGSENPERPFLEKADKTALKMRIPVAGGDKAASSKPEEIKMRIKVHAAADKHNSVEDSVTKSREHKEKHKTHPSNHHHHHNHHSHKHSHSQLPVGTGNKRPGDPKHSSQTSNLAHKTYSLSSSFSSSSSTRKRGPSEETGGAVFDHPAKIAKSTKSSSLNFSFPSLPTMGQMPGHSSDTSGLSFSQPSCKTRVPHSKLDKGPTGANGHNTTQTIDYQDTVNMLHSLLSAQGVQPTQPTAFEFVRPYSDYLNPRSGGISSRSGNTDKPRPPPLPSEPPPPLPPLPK

Row | Compound | SI selectivity index (CC50/IC50) ([3]; HCoV-229E) | IC50 [3, 7] [µM] | IC50 (K652 cancer cells) [µM] | IC50 (HCT116 cancer cells) [µM] | IC50 (CDK9 [4]) [µM] | IC50 [5] [µM] | IC50 (MCF7 cancer cells) [µM] | CC50 [6] [µM] | further results
1 | 2-phenylimidazopyrazin-3-amine [Compound 2] | – | – | – | – | – | – | – | – | CDK9 IC50 (CDK9 [1]): submicromolar; IC50 (CDK9 [1]): 0.166 µM; Cytotoxicity IC50 (three cancer cell lines): single-digit; IC50 (three cancer cell lines; read-out: Cytotoxicity IC50): 6.66 µM
2 | COc1cc(F)ccc1-c1ncnc(Nc2cccc(C[S@](C)(=N)=O)c2)n1 [Atuveciclib] | – | – | – | – | – | – | – | – | IC50 (CDK5): 1.6 µM; IC50 (CDK7): > 10 µM; IC50 (CDK2): 1 µM
3 | COc1cc(F)ccc1-c1cc(Nc2cc(CS(C)(=N)=O)ccn2)ncc1F (stereo not shown) [BAY-1251152] | – | – | – | – | – | – | – | – | IC50 (CDK2): 2.92 µM
4 | Oc1ccc(-c2nc3cnccn3c2NCCc2ccccc2)cc1O [Compound 1] | – | – | – | – | – | – | – | – | IC50 [2]: 34.8 µM
5 | CC(C)(C)Nc1c(-c2ccoc2)nc2cnccn12 [Compound 1a, N-(Tert-butyl)-2-(furan-3-yl) imidazo[1,2-a] pyrazin-3-amine] | 1.25 | 1060 | 13.4 ± 0.19 | 21.6 ± 0.29 | 0.19 ± 0.003 | 12.6 | 2.85 ± 0.03 | 1320 | SI (Selectivity Index) HCT116 (FHC normal cells): 2.7; SI (Selectivity Index) K652 (FHC normal cells): 4.3; SI (Selectivity Index) MCF7 (FHC normal cells): 20.5; IC50 (FHC normal cells; [8]): 58.6 ± 0.8 µM
6 | c1cn2c(NC3CCCCC3)c(-c3ccoc3)nc2cn1 [Compound 1b, N-Cyclohexyl-2-(furan-3-yl) imidazo[1,2-a] pyrazin-3-amine] | – | – | 168 ± 5.99 | 164 ± 2.1 | 1.78 ± 0.029 | 144 | 99.2 ± 3.08 | – | –
7 | c1ccc(CNc2c(-c3ccoc3)nc3cnccn23)cc1 [Compound 1c, N-Benzyl-2-(furan-3-yl) imidazo[1,2-a]pyrazin-3-amine] | – | – | 24.8 ± 0.61 | 16.4 ± 0.69 | 0.46 ± 0.008 | 19.5 | 17.4 ± 0.34 | 653 | IC50 [3]: 516 µM; IC50 (FHC normal cells): 61.7 ± 0.96 µM
8 | COc1ccc(Nc2c(-c3ccoc3)nc3cnccn23)cc1 [Compound 1d, 2-(Furan-3-yl)-N-(4-methoxyphenyl) imidazo[1,2-a] pyrazin-3-amine] | 1.27 | 405 | 11.8 ± 0.19 | 10.7 ± 0.16 | 0.18 ± 0.003 | 11.6 | 12.3 ± 0.17 | 846 | IC50 (FHC normal cells; [8]): 187 ± 2.92 µM
9 | CC(C)(C)Nc1c(-c2ccc(O)cc2O)nc2cnccn12 [Compound 2a, 4-(3-(Tert-butylamino)imidazo[1,2-a]pyrazin-2-yl)benzene-1,3-diol] | – | – | 71.05 ± 0.39 | 136.4 ± 0.25 | 0.45 ± 0.008 | 85.2 | 48.26 ± 0.24 | – | –
10 | Oc1ccc(-c2nc3cnccn3c2NC2CCCCC2)c(O)c1 [Compound 2b, 4-(3-(Cyclohexylamino)imidazo[1,2-a]pyrazin-2-yl)benzene-1,3-diol] | – | – | 38.8 ± 1.16 | 7.61 ± 2.12 | 0.3 ± 0.006 | 30.8 | 45.9 ± 0.67 | – | –
11 | Oc1ccc(-c2nc3cnccn3c2NCc2ccccc2)c(O)c1 [Compound 2c, 4-(3-(Benzylamino)imidazo[1,2-a]pyrazin-2-yl)benzene-1,3-diol] | – | – | 50.2 ± 0.69 | 56.56 ± 0.13 | 0.65 ± 0.011 | 56.8 | 63.5 ± 0.7 | – | –
12 | COc1ccc(Nc2c(-c3ccc(O)cc3O)nc3cnccn23)cc1 [Compound 2d, 4-(3-((4-Methoxyphenyl)amino)imidazo[1,2-a]pyrazin-2-yl)benzene-1,3-diol] | – | – | 25.3 ± 0.91 | 104 ± 0.98 | 0.89 ± 0.018 | 66.8 | 71.2 ± 0.99 | – | –
13 | CN(C)c1ccc(-c2nc3cnccn3c2NC(C)(C)C)cn1 [Compound 3a, N-(Tert-butyl)-2-(6-(dimethylamino)pyridin-3-yl)imidazo[1,2-a]pyrazin-3-amine] | 0.48 | 393 | 78.2 ± 1.32 | 4.13 ± 0.07 | 0.3 ± 0.005 | 35.1 | 22.8 ± 0.33 | 186 | –
14 | CN(C)c1ccc(-c2nc3cnccn3c2NC2CCCCC2)cn1 [Compound 3b, N-Cyclohexyl-2-(6-(dimethylamino)pyridin-3-yl)imidazo[1,2-a]pyrazin-3-amine] | 0.37 | 590 | 4.5 ± 0.08 | 11 ± 0.19 | 0.23 ± 0.005 | 10.7 | 16.4 ± 0.26 | 213 | SI (Selectivity Index) HCT116 (FHC normal cells): 8.7; SI (Selectivity Index) K652 (FHC normal cells): 21.3; SI (Selectivity Index) MCF7 (FHC normal cells): 5.8; IC50 (FHC normal cells; [8]): 95.8 ± 1.72 µM
15 | CN(C)c1ccc(-c2nc3cnccn3c2NCc2ccccc2)cn1 [Compound 3c, N-Benzyl-2-(6-(dimethylamino)pyridin-3-yl)imidazo[1,2-a]pyrazin-3-amine] | – | – | 26.4 ± 0.43 | 42.2 ± 0.68 | 0.33 ± 0.007 | 26 | 9.52 ± 0.15 | – | –
16 | COc1ccc(Nc2c(-c3ccc(N(C)C)nc3)nc3cnccn23)cc1 [Compound 3d, 2-(6-(Dimethylamino)pyridin-3-yl)-N-(4-methoxyphenyl) imidazo[1,2-a]pyrazin-3-amine] | – | – | 153 ± 2.99 | 147 ± 2.75 | 1.66 ± 0.034 | 140 | 120 ± 2.02 | – | –
17 | CC(C)(C)Nc1c(-c2ccnc(F)c2)nc2cnccn12 [Compound 4a, N-(Tert-butyl)-2-(2-fluoropyridin-4-yl) imidazo[1,2-a] pyrazin-3-amine] | 4.8 | 63.3 | 19.6 ± 0.26 | 38.2 ± 0.51 | 0.24 ± 0.004 | 20.7 | 4.38 ± 0.06 | 303 | –
18 | Fc1cc(-c2nc3cnccn3c2NC2CCCCC2)ccn1 [Compound 4b, N-Cyclohexyl-2-(2-fluoropyridin-4-yl) imidazo[1,2-a] pyrazin-3-amine] | 0.29 | 618 | 23.2 ± 0.81 | 15.28 ± 0.13 | 1.22 ± 0.011 | 18.2 | 16.2 ± 0.41 | 174 | SI (Selectivity Index) HCT116 (FHC normal cells): 4.8; SI (Selectivity Index) K652 (FHC normal cells): 3.2; SI (Selectivity Index) MCF7 (FHC normal cells): 4.5; IC50 (FHC normal cells; [8]): 74.3 ± 1.26 µM
19 | Fc1cc(-c2nc3cnccn3c2NCc2ccccc2)ccn1 [Compound 4c, N-Benzyl-2-(2-fluoropyridin-4-yl) imidazo[1,2-a] pyrazin-3-amine] | 0.9 | 331 | 114 ± 1.7 | 97.4 ± 1.46 | 1.11 ± 0.02 | 92.8 | 67.3 ± 1.01 | 271 | –
20 | COc1ccc(Nc2c(-c3ccnc(F)c3)nc3cnccn23)cc1 [Compound 4d, 2-(2-Fluoropyridin-4-yl)-N-(4-methoxyphenyl) imidazo[1,2-a]pyrazin-3-amine] | – | – | 47.11 ± 0.26 | 10.2 ± 0.16 | 0.57 ± 0.011 | 27.5 | 25.1 ± 0.39 | – | –
21 | NC(=O)c1ncn([C@@H]2O[C@H](CO)[C@@H](O)[C@H]2O)n1 [Ribavirin, reference compound] | 1.4 | 114 | – | – | – | – | – | 160 | –
22 | CN[C@@H]1C[C@H]2O[C@@](C)([C@@H]1OC)n1c3ccccc3c3c4c(c5c6ccccc6n2c5c31)C(=O)NC4 [Staurosporine, reference compound] | – | – | – | – | – | – | 18.4 ± 0.4 | – | –
